Test results from US8741923B2, “Oxadiazole fused heterocyclic derivatives useful for the treatment of multiple sclerosis” (Merck Serono SA, priority 2008, dated 2014).

Legend:
S1P1 [1] = target: T1, S1P1 (Homo sapiens (Human), UniProt P21453); test: 35S-GTPγS binding, S1P1 membranes; format: biochemical; settings: membranes from CHO cells expressing S1P1
Procedure: Receptor binding assay: Membranes were prepared from CHO cells expressing S1P1 or S1P3 for use in ligand and 35S-GTPγS binding studies. Cells were suspended in 50 mM TRIS, pH 7.4, 2 mM EDTA, 250 mM Sucrose (buffer A) and 1× Complete protease inhibitor cocktail (Roche), and disrupted at 4° C. by N2 decompression using a cell disruption bomb (Parr Instrument). Following centrifugation at 1000 RPM for 10 min at 4° C., the supernatant was suspended in buffer A and centrifuged again at 19000 RPM for 60 min at 4° C. The pellet was then suspended in 10 mM HEPES, pH 7.4, 1 mM EDTA, 250 mM Sucrose (Buffer B), and 1× Complete EDTA-free protease inhibitor cocktail and homogenized using a potter. Membranes were flash frozen in liquid N2 and stored at −80° C. [33P]sphingosine 1-phosphate (3000 Ci/mmol; American Radiolabeled Chemicals, Inc.) was added to test compounds in DMSO. […] Specific binding was calculated by subtracting remaining radioactivity in the presence of 1000-fold excess of unlabeled S1P. Binding data were analyzed using the GraphPad Prism program.
(§1) Measurements of 35S-GTPγS Binding:
After 60 min incubation at 30° C. on a shaker, plates were centrifuged for 10 min at 2000 RPM. […] Triplicate samples were averaged and expressed as % response relative to S1P activation in absence of compound (n=2).

S1P1 [2] = target: T1, S1P1; test: Receptor binding assay ([33P]sphingosine 1-phosphate, SPA) on S1P1 membranes; settings: membranes from CHO cells expressing S1P1
Procedure: (§2) Receptor binding assay: Membranes were prepared from CHO cells expressing S1P1 or S1P3 for use in ligand and 35S-GTPγS binding studies. Cells were suspended in 50 mM TRIS, pH 7.4, 2 mM EDTA, 250 mM Sucrose (buffer A) and 1× Complete protease inhibitor cocktail (Roche), and disrupted at 4° C. by N2 decompression using a cell disruption bomb (Parr Instrument). Following centrifugation at 1000 RPM for 10 min at 4° C., the supernatant was suspended in buffer A and centrifuged again at 19000 RPM for 60 min at 4° C. The pellet was then suspended in 10 mM HEPES, pH 7.4, 1 mM EDTA, 250 mM Sucrose (Buffer B), and 1× Complete EDTA-free protease inhibitor cocktail and homogenized using a potter. Membranes were flash frozen in liquid N2 and stored at −80° C. [33P]sphingosine 1-phosphate (3000 Ci/mmol; American Radiolabeled Chemicals, Inc.) was added to test compounds in DMSO. Membranes and WGA SPA beads (GE Healthcare) were added to give a final volume of 100 μl in 96-well plates with assay concentrations of […] [33P]sphingosine 1-phosphate (respectively for S1P1 or S1P3), 50 mM HEPES, pH 7.5, 5 mM MgCl2, 100 mM NaCl, 0.4% fatty acid-free BSA, 1-5 μg/well of proteins and 100 μg/well of WGA SPA beads. Binding was performed for 60 min at RT on a shaker and bound radioactivity was measured on a PerkinElmer 1450 MicroBeta counter. Specific binding was calculated by subtracting remaining radioactivity in the presence of 1000-fold excess of unlabeled S1P. Binding data were analyzed using the GraphPad Prism program.

S1P3 = S1P3 (Homo sapiens (Human), UniProt Q99500); test: 35S-GTPγS binding, S1P3 membranes; format: biochemical; settings: membranes from CHO cells expressing S1P3
Procedure: as §2, §1
Membranes (1 to 10 μg protein) prepared as described above, were incubated in 96-well Scintiplates (PerkinElmer) with test compounds diluted in DMSO, in 180 μl of 20 mM HEPES, pH 7.4, 10 mM MgCl2, 2 μg/well Saponin, 0.2% fatty acid free BSA (Assay buffer), 140 mM NaCl and 1.7 μM GDP. The assay was initiated with the addition of 20 μl of 1.5 nM [35S]-GTPγS (1100 Ci/mmol; GE Healthcare) in assay buffer. After 60 min incubation at 30° C. on a shaker, plates were centrifuged for 10 min at 2000 RPM. Supernatant was discarded and membrane bound radioactivity was measured on a PerkinElmer 1450 MicroBeta counter. Triplicate samples were averaged and expressed as % response relative to S1P activation in absence of compound (n=2).

Chain of S1P3 (Q99500 whole entry, species assumed): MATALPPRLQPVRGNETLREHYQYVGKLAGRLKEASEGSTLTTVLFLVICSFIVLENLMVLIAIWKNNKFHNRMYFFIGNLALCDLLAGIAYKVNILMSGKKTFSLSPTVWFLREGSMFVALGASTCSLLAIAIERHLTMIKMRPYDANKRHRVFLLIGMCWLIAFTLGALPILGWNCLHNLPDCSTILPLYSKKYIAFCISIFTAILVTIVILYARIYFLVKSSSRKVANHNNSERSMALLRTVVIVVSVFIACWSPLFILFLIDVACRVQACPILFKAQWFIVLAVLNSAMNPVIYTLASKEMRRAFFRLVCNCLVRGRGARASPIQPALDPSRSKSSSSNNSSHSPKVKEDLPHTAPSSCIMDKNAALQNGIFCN
T1 sequence (P21453 whole entry, species assumed): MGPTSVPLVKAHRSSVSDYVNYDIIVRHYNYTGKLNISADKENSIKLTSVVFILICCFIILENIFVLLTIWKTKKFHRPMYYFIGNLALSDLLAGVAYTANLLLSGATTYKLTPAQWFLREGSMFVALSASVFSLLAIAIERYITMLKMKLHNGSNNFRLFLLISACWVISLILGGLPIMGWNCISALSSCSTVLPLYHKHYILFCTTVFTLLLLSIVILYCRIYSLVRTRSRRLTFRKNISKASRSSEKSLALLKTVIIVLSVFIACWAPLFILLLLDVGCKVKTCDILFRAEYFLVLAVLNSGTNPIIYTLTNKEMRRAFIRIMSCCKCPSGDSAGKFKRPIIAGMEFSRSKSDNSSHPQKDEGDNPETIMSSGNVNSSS

Compound | EC50 (S1P1 [1]) | Ki (S1P1 [2]) | EC50 (S1P3)
CC1CCCCN1c1ccc(-c2nc(-c3ccc4c(c3)CNCC4)no2)cc1C(F)(F)F (stereo not shown) [Compound 10, 7-{5-[4-(2-methylpiperidin-1-yl)-3-(trifluoromethyl)phenyl]-1,2,4-oxadiazol-3-yl}-1,2,3,4-tetrahydroisoquinoline] | 12 nM | 3 nM | 584 nM
CC1CCCCN1c1ccc(-c2nc(-c3ccc4[nH]ccc4c3)no2)cc1NS(C)(=O)=O (stereo not shown) [Compound 22, N-[5-[3-(1H-indol-5-yl)-1,2,4-oxadiazol-5-yl]-2-(2-methylpiperidin-1-yl)phenyl]methanesulfonamide] | 16 nM | 164 nM | 
CC1CCCCN1c1ccc(-c2nc(-c3ccc4[nH]cnc4c3)no2)cc1C(F)(F)F (stereo not shown) [Compound 1, 5-{5-[4-(2-methylpiperidin-1-yl)-3-(trifluoromethyl)phenyl]-1,2,4-oxadiazol-3-yl}-1H-benzimidazole] | 11 nM | 5 nM | 621 nM
COCc1cc(-c2nc(-c3ccc4c(c3)CNCC4)no2)ccc1-c1ccccc1C [Compound 15, 7-{5-[2-(methoxymethyl)-2′-methylbiphenyl-4-yl]-1,2,4-oxadiazol-3-yl}-1,2,3,4-tetrahydroisoquinoline] | 6 nM | 1 nM | 
Cc1cc(-c2nc(-c3ccc4[nH]cnc4c3)no2)cnc1N1CCCCC1C (stereo not shown) [Compound 3, 5-{5-[5-methyl-6-(2-methylpiperidin-1-yl)pyridin-3-yl]-1,2,4-oxadiazol-3-yl}-1H-benzimidazole] | 94 nM | 38 nM | 
Cc1ccccc1-c1ccc(-c2nc(-c3ccc4c(c3)CN(CC(=O)O)CC4)no2)cc1C(F)(F)F [Compound 36, [7-{5-[2′-methyl-2-(trifluoromethyl)biphenyl-4-yl]-1,2,4-oxadiazol-3-yl}-3,4-dihydroisoquinolin-2(1H)-yl]acetic acid] |  | 0.49 nM | 
Cc1ccccc1-c1ccc(-c2nc(-c3ccc4nc[nH]c4c3)no2)cc1CN(C)C [Compound 5, 1-{4-[3-(1H-benzimidazol-6-yl)-1,2,4-oxadiazol-5-yl]-2′-methylbiphenyl-2-yl}-N,N-dimethylmethanamine] | 3.4 nM | 5 nM | 

Results, then the molecule that gave them:

EC50 (S1P1 [1]) | Ki (S1P1 [2]) | EC50 (S1P3) | Compound
4 nM | 3 nM |  | COc1cc(-c2nc(-c3ccc4[nH]ncc4c3)no2)ccc1-c1cscc1C [Compound 24, 5-{5-[3-methoxy-4-(4-methyl-3-thienyl)phenyl]-1,2,4-oxadiazol-3-yl}-1H-indazole]
17 nM | 4.26 nM |  | CCC1CCCCN1c1ccc(-c2nc(-c3ccc4[nH]cnc4c3)no2)cc1COC (stereo not shown) [Compound 27, 5-{5-[4-(2-ethylpiperidin-1-yl)-3-(methoxymethyl)phenyl]-1,2,4-oxadiazol-3-yl}-1H-benzimidazole]
2.1 nM | 0.7 nM |  | COCc1cc(-c2nc(-c3ccc4c(c3)CN(CC(=O)O)CC4)no2)ccc1-c1ccccc1C [Compound 16, [7-{5-[2-(methoxymethyl)-2′-methylbiphenyl-4-yl]-1,2,4-oxadiazol-3-yl}-3,4-dihydroisoquinolin-2(1H)-yl]acetic acid]
8.4 nM | 5 nM | 325 nM | COCc1cc(-c2nc(-c3ccc4[nH]cnc4c3)no2)ccc1-c1ccccc1C [Compound 4, 5-{5-[2-(methoxymethyl)-2′-methylbiphenyl-4-yl]-1,2,4-oxadiazol-3-yl}-1H-benzimidazole]
32 nM | 11 nM |  | Cc1ccccc1-c1ccc(-c2nc(-c3ccc4[nH]ncc4c3)no2)cc1C [Compound 25, 5-[5-(2,2′-dimethylbiphenyl-4-yl)-1,2,4-oxadiazol-3-yl]-1H-indazole]
6 nM | 4 nM | 159 nM | CC1CCCCN1c1ccc(-c2nc(-c3ccc4c(c3)CNCC4)no2)cc1NS(C)(=O)=O (stereo not shown) [Compound 11, N-{2-(2-methylpiperidin-1-yl)-5-[3-(1,2,3,4-tetrahydroisoquinolin-7-yl)-1,2,4-oxadiazol-5-yl]phenyl}methanesulfonamide]
9 nM | 0.8 nM |  | CC1CCCCN1c1ccc(-c2nc(-c3ccc4c(c3)CNCC4)no2)cc1C#N (stereo not shown) [Compound 12, 2-(2-methylpiperidin-1-yl)-5-[3-(1,2,3,4-tetrahydroisoquinolin-7-yl)-1,2,4-oxadiazol-5-yl]benzonitrile]
